Where two headings read alike, the source gives them in different places. Where a SMILES comes first, the peptide text is derived from it. [ ]: non-standard residue; d: D form. The star is where a group is joined. Benzoyl(4-tBu) = CC(C)(C)c1ccc(C(=O)*)cc1; Lys(Et2) = CCN(CC)CCCC[C@H](N)C(=O)O
Molecular target: BTK (Homo sapiens, UniProt Q06187)
Test: biochemical
[1] = read-out: BTK inhibition (%), 0.75 uM BTK, […] probe 3l, 15 min preincubation

BTK, sequence (Q06187 402-655 limits assumed): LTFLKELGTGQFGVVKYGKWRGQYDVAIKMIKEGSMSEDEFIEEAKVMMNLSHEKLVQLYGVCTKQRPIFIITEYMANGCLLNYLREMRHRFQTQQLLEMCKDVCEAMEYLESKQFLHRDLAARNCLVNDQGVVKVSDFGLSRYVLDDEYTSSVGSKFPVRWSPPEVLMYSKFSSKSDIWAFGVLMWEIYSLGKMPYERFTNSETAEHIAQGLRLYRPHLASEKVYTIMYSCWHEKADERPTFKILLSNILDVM

Structure (SMILES) | inhibition at 10 µM [1] [%] | inhibition at 10 µM (read-out: BTK inhibition (%)) [%]
O=C(O)C1=CO[C@@H](O[C@@H]2O[C@H](CO)[C@@H](O)[C@H](O)[C@H]2O)[C@@H]2C(CO)=CC[C@H]12 [PCM-0086855] | -2.8 | 
Cc1cc(-c2ccc(CC(=O)Nc3ccc(-c4cccnc4)cc3)cc2)ccn1 [PCM-0095743] | -11.6 | 
COc1cc(/C=C/C(=O)O[C@H]2CC[C@]34C[C@]35CC[C@]3(C)[C@@H]([C@H](C)CCC=C(C)C)CC[C@@]3(C)[C@@H]5CC[C@H]4C2(C)C)ccc1O [PCM-0214964] | 16.3 | 
COC[C@H](NC(=O)c1cnc(C)s1)C(=O)N[C@@H](COC)C(=O)N[C@@H](Cc1ccccc1)C(=O)[C@@]1(C)CO1 [PCM-0095574] | -4.6 | 
CC(C)=CCC[C@](C)(O[C@@H]1O[C@H](CO)[C@@H](O)[C@H](O)[C@H]1O)[C@H]1CC[C@]2(C)[C@@H]1[C@H](O)C[C@@H]1[C@@]3(C)CC[C@H](O)C(C)(C)[C@@H]3[C@@H](O[C@@H]3O[C@H](CO)[C@@H](O)[C@H](O)[C@H]3O)C[C@]12C [PCM-0215029] | 14 | 
CC(C)C[C@H](NC(=O)[C@@H](NC(=O)c1cccc(-c2ccccc2)n1)[C@@H](C)O)B(O)O [PCM-0214714] | 6.2 | 
O=C1Cc2cc(CCN3CCN(c4nsc5ccccc45)CC3)c(Cl)cc2N1 [PCM-0065598] | 52.1 | 
C[C@]12CCC(=O)C(O)=C1CC[C@@H]1[C@@H]2CC[C@]2(C)C(=O)CC[C@@H]12 [PCM-0214668] |  | -1.4
C=C(C)[C@@H]1CC[C@]2(C=O)CC[C@]3(C)[C@H](CC[C@@H]4[C@@]5(C)CC[C@H](O)C(C)(C)[C@@H]5CC[C@]43C)[C@@H]12 [PCM-0216430] | 19.3 | 
CN1[C@@H]2CC[C@H]1CC(O)C2 (stereo partly shown) [PCM-0215128] |  | -7.8
CN(C)CCC(c1ccc(Br)cc1)c1ccccn1 (stereo not shown) [PCM-0064576] | -19.3 | 
CC(C)(C)c1cc(O)ccc1O [PCM-0215107] | 5.5 | 
NC(=O)[C@H](CCCN=C(N)CCl)NC(=O)c1ccccc1 [PCM-0215816] | -5.5 | 
CCOC(=O)c1ccc(N2NC(=O)/C(=C/c3ccc([N+](=O)[O-])o3)C2=O)cc1 [PCM-0095807] | 64.9 | 
CCN(CC)CCCC[C@H](NC(=O)[C@H](CC(C)C)NC(=O)[C@H](C)NC(=O)[C@H](Cc1ccccc1)NC(=O)c1ccc(C(C)(C)C)cc1)C(=O)N[C@@H](CO)C(=O)OC [PCM-0215741] ({Benzoyl(4-tBu)}-FAL[Lys(Et2)]S-OMe) | -16.2 | 
C[C@]12C=CC(=O)C=C1CC[C@@H]1[C@@H]2CC[C@@]2(C)[C@H]1CC[C@]2(C)O [PCM-0215063] |  | -11.7
O=C(CCCN1CCC(O)(c2ccc(Cl)cc2)CC1)c1ccc(F)cc1 [PCM-0065124] | -12.5 | 
C=C[C@](C)(O)CC[C@@H]1[C@@]2(C)CCCC(C)(C)[C@@H]2CC[C@@]1(C)O [PCM-0094807] | -25.7 | 
CNCc1ccc(C)c(NC(=O)c2ccc(Nc3nc(-c4ccccc4)c4ccccc4n3)cc2)c1 [PCM-0095748] | 79.5 | 
CCCNCC(O)COc1ccccc1C(=O)CCc1ccccc1 (stereo not shown) [PCM-0064846] | 2.3 | 
CNC1CCC(N(Cc2cccc(-c3ccncc3)c2)C(=O)c2sc3ccccc3c2Cl)CC1 (stereo not shown) [PCM-0215509] | -8.5 | 
Nc1ccc(S(=O)(=O)Nc2cncc(Cl)n2)cc1 [PCM-0215142] | -10.9 | 
CC[C@H]1OC(=O)C[C@@H](OC(C)=O)[C@H](C)[C@@H](O[C@@H]2O[C@H](C)[C@@H](O[C@H]3C[C@@](C)(O)[C@@H](OC(=O)CC(C)C)[C@H](C)O3)[C@H](N(C)C)[C@H]2O)[C@@H](CC=O)C[C@@H](C)C(=O)/C=C/C(C)=C/[C@@H]1CO[C@@H]1O[C@H](C)[C@@H](O)[C@@H](OC)[C@H]1OC [PCM-0216006] | -20.1 | 
CC(C)=CCC/C(C)=C/C=O [PCM-0215914] | -17 | 
COc1ccc2cc(CCC(C)=O)ccc2c1 [PCM-0086446] | 7.6 | 

Structure (SMILES) | inhibition at 10 µM [1] [%] | inhibition at 10 µM (read-out: BTK inhibition (%)) [%]
O=c1cc(-c2ccccc2)oc2cc(O[C@@H]3O[C@H](CO[C@@H]4O[C@H](CO)[C@@H](O)[C@H](O)[C@H]4O)[C@@H](O)[C@H](O)[C@H]3O)c(O)c(O)c12 [PCM-0216453] | 30.9 | 
COc1cc(/C=C/C(=O)CC(=O)/C=C/c2ccc(O)cc2)ccc1O [PCM-0216521] | 110 | 
Cc1c(Cl)cccc1Nc1ccccc1C(=O)O [PCM-0005612] | -6.2 | 
O=C(Nc1ccccc1Br)N[C@@H]1CCN(c2ccc(C(F)(F)F)cn2)C1 [PCM-0095337] | -17.1 | 
COCCn1c2c([n+](Cc3cnccn3)c1C)C(=O)c1ccccc1C2=O [PCM-0094937] | -17.9 | 
CCCCCCCCCCCCCCCCn1cc[n+](Cc2ccccc2)c1C [PCM-0095755] | -51.7 | 
CCC1=C(C)CN(C(=O)NCCc2ccc(S(=O)(=O)NC(=O)NC3CCC(C)CC3)cc2)C1=O (stereo not shown) [PCM-0086384] | 8.6 | 
COc1cc2ncnc(Nc3ccc(O)c(Br)c3)c2cc1OC [PCM-0095533] | 33.8 | 
O=c1oc2cc(O)ccc2s1 [PCM-0090709] | -13.2 | 
O=C(C1CCCCC1)N1CC(=O)N2CCc3ccccc3C2C1 (stereo not shown) [PCM-0064807] | -5.4 | 
O=C(NCc1cccc(O)c1)Nc1nc(-c2ccncc2)cs1 [PCM-0095724] | -4.8 | 
Cc1cn([C@H]2O[C@@H](CO)[C@H](O)[C@H]2F)c(=O)[nH]c1=O [PCM-0214737] | 23.3 | 
COc1cccc(-c2cc(NCc3ccc4c(c3)OCO4)nc(N)n2)c1 [PCM-0215610] | -7.7 | 
C=CC(=O)Nc1cccc(Nc2nc(Nc3ccc(N4CCN(C(C)=O)CC4)cc3OC)ncc2C(F)(F)F)c1 [PCM-0215245] | 95.9 | 
Cc1c(N[C@@H](c2nnc(-c3ccc(C#N)cc3)o2)[C@H](C)O)ccc(C#N)c1Cl [PCM-0216075] |  | 17.8
CC(C)(CO)c1cc2cc(NC(=O)C3(c4ccc5c(c4)OC(F)(F)O5)CC3)c(F)cc2n1C[C@@H](O)CO [PCM-0095580] | -27.8 | 
COc1nc(C)cnc1NS(=O)(=O)c1cccnc1-c1ccc(-c2nnco2)cc1 [PCM-0095131] | 3.4 | 
OC[C@H]1O[C@H](Oc2ccc(O)cc2)[C@H](O)[C@@H](O)[C@@H]1O [PCM-0215968] | 4.6 | 
COC(=O)c1cc(OC)c(O)c(OC)c1 [PCM-0215058] | -17.1 | 
CN1C2=C3N=c4ccccc4=C3CCN2C(=O)c2ccccc21 [PCM-0214954] | 7 | 
O=C(O)c1ccc2c(c1)C(=O)c1ccccc1C2=O [PCM-0216619] | 9.3 | 
COc1cc(C2Oc3ccc([C@H]4Oc5cc(O)cc(O)c5C(=O)[C@@H]4O)cc3OC2CO)ccc1O (stereo partly shown) [PCM-0216498] | 21.6 | 
O=C1C[C@@H](c2ccccc2)Oc2cc(O)cc(O)c21 [PCM-0214944] | 11.7 | 
COc1ccc(/C=C/C(=O)Nc2ccccc2C(=O)O)cc1OC [PCM-0065010] | 13.8 | 
CC1(C)S[C@@H]2[C@H](NC(=O)[C@H](C(=O)O)c3ccsc3)C(=O)N2[C@H]1C(=O)O [PCM-0214724] | -1.6 | 

Structure (SMILES) | inhibition at 10 µM [1] [%] | inhibition at 10 µM (read-out: BTK inhibition (%)) [%]
Cc1onc(-c2ccccc2Cl)c1C(=O)N[C@@H]1C(=O)N2[C@@H]1SC(C)(C)[C@@H]2C(=O)O [PCM-0214695] | -5.4 | 
C=C[C@H]1CN2CC[C@]3(C(=O)Nc4ccccc43)[C@@H]2C[C@@H]1/C(=C\OC)C(=O)OC [PCM-0216538] | 6.2 | 
CC(C)=CCC/C(C)=C/CC/C(C)=C/CC/C(C)=C/CC1=C(C)C(=O)c2ccccc2C1=O [PCM-0216051] | 2.3 | 
C/C=C/C=C/C(=O)O [PCM-0215158] | 0 | 
NNc1nnc(NN)c2ccccc12 [PCM-0215993] | 9.3 | 
Cn1cc(-c2ccc3c(c2)CCN3C(=O)Cc2cccc(C(F)(F)F)c2)c2c(N)ncnc21 [PCM-0095812] | 40 | 
CC(=O)N[C@@H](CC(=O)O)C(=O)N[C@@H](CCC(=O)O)C(=O)N[C@H](C(=O)N[C@H](C=O)CC(=O)O)C(C)C [PCM-0215827] | -7.7 | 
O=c1[nH]c2ccccc2n1C1CCN(Cc2ccc(-c3[nH]c4cc5ncnc5cc4nc3-c3ccccc3)cc2)CC1 [PCM-0215535] | 18.6 | 
COC(=O)N[C@H](C(=O)N1CCC[C@H]1c1ncc(-c2ccc3c(c2)O[C@@H](c2ccccc2)n2c-3cc3cc(-c4cnc([C@@H]5CCCN5C(=O)[C@@H](NC(=O)OC)C(C)C)[nH]4)ccc32)[nH]1)C(C)C [PCM-0216642] | 52.5 | 
Cc1cccc(N(C)C(=S)Oc2ccc3ccccc3c2)c1 [PCM-0007505] | 4.7 | 
CC(=O)O[C@@]12CO[C@@H]1C[C@H](O)[C@@]1(C)C(=O)[C@H](O)C3=C(C)[C@@H](O)C[C@@](O)([C@@H](OC(=O)c4ccccc4)[C@H]21)C3(C)C [PCM-0095302] | 9.3 | 
Nc1ccc(S(=O)(=O)Nc2ccccn2)cc1 [PCM-0086480] | -13.6 | 
O=C(O)c1cccc(-c2noc(-c3ccccc3F)n2)c1 [PCM-0095566] | -10 | 
O=C(c1cn(Cc2cncn2Cc2ccc(Br)cc2)cc1-c1cccc2ccccc12)N1CCOCC1 [PCM-0215301] | -4.6 | 
CCn1c(C(=O)N(C2CC2)C2CC2)cc2c3c(ncn3C)c(Nc3cc(C)n(C)n3)nc21 [PCM-0215708] | 3.4 | 
CC(C)(C)NC(=O)c1cncn1C1CCN(c2ccc(-c3nnc(C(F)(F)F)o3)cn2)CC1 [PCM-0215700] | -12.4 | 
Fc1ccc(C(c2ccc(F)cc2)N2CCN(C/C=C/c3ccccc3)CC2)cc1 [PCM-0065210] | 87.2 | 
Cc1cnc(NC(=O)Nc2cc(Br)c(C)cc2OC[C@@H]2CNCCO2)cn1 [PCM-0095485] | 7.6 | 
O=C1C(c2[nH]c3ccccc3c2O)=Nc2ccccc21 [PCM-0215050] | 28.8 | 
C[C@H](NC(=O)/C(C#N)=C/c1cccc(Br)n1)c1ccccc1 [PCM-0095390] | 12.4 | 
COc1ccc(Cn2c3ncnc4c(ncn4Cc4ccc(OC)cc4)c-3nc2=O)cc1 [PCM-0215699] | 7.7 | 
CCN(CC)C[C@@H](O)CNc1ccc(NC[C@H]2CO2)c2c1C(=O)c1ccccc1C2=O [PCM-0215722] | 57.9 | 
C[C@@H]1CC(=O)NN=C1c1ccc(NN=C(C#N)C#N)cc1 [PCM-0090272] | 21.8 | 

Source: publication PMC8041284, “Tunable Methacrylamides for Covalent Ligand Directed Release Chemistry” (Journal of the American Chemical Society, 2021)
